In patent US9497965B2, “Pesticidal compounds” (Syngenta Participations AG, priority 2011, dated 2016):

melting point	Structure (SMILES)
142 to 144 °C	O=C(NCC1(c2c(Cl)cc(Cl)cc2Cl)CC1)c1ncccc1C(F)(F)F [A.29, N-[[1-(2,4,6-trichlorophenyl)cyclopropyl]methyl]-3-(trifluoromethyl)pyridine-2-carboxamide]
100 to 102 °C	N#Cc1cc(F)c(C2(CNC(=O)c3ccccc3C(F)(F)F)CC2)c(F)c1 [A.57, N-[[1-(4-cyano-2,6-difluoro-phenyl)cyclopropyl]methyl]-2-(trifluoromethyl)benzamide]
